This is an account of results in US10093630B2, “Pyrazole compounds and methods of making and using same” (ABIDE THERAPEUTICS, INC., priority 2014, dated 2018).

Holding throughout (test): In vitro competitive activity-based protein profiling (gel-based, FP-Rh or HT-01 probe)
What all share (format): biochemical

The target in one assay is T1, FAAH (Mus musculus, UniProt O08914).
T1 construct: Proteomes (mouse brain membrane fraction or cell lysates); from tissue; host or cells: mouse brain membrane fraction (or cell lysates, not specified)
T1 sequence (O08914 1-579): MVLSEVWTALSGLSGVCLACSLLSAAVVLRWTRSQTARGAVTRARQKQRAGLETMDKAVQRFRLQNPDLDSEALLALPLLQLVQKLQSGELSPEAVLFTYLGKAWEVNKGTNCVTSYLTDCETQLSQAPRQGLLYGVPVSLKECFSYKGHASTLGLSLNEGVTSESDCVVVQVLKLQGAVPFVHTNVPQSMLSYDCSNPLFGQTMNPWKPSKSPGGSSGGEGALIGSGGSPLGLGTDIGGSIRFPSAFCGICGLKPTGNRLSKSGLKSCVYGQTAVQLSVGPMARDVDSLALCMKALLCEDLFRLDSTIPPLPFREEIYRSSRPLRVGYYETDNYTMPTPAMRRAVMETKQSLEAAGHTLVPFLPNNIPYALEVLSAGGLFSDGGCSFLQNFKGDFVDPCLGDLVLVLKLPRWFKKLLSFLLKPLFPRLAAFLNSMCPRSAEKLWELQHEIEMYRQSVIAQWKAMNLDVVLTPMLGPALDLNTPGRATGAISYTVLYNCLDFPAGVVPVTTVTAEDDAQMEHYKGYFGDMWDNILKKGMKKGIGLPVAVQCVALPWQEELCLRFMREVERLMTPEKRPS
The conditions noted are these: for inhibition at 1 µM: 1 μM inhibitor, read-out: % Inhibition at 1 μM, B = FAAH; for inhibition at 10 µM: 10 μM inhibitor, read-out: % Inhibition at 10 μM, B = FAAH; for IC50: mouse brain membrane fraction or cell lysates, 30 min preincubation at 37° C., read-out: Mouse (IC50 value, nM) FAAH. The gist of the method:
(§1)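 Mouse brain membrane or cell lysate proteomes (1.0 mg/mL) preincubated with inhibitors 30 min at 37° C, then labelled with FP-Rh or HT-01 for 30 min at 37° C. After SDS-PAGE, activity quantified from fluorescent band intensity.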

The next assay addresses T2, ABHD6 (Mus musculus, UniProt Q8R2Y0).
T2 construct: Proteomes (mouse brain membrane fraction or cell lysates); from tissue; host or cells: mouse brain membrane fraction (or cell lysates, not specified)
T2 sequence (Q8R2Y0 1-336): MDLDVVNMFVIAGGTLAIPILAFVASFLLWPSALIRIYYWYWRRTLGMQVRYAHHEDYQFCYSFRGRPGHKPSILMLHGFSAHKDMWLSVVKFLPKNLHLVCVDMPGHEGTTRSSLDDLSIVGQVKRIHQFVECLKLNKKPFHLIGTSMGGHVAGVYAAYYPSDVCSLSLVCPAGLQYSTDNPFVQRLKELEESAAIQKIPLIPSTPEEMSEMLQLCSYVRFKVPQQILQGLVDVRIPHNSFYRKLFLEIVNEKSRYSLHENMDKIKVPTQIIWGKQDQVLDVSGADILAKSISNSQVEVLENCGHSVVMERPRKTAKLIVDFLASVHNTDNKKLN
Conditions: for inhibition at 1 µM: 1 μM inhibitor, read-out: % Inhibition at 1 μM, C = ABHD6; for inhibition at 10 µM: 10 μM inhibitor, read-out: % Inhibition at 10 μM, C = ABHD6; for IC50: mouse brain membrane fraction or cell lysates, 30 min preincubation at 37° C., read-out: Mouse (IC50 value, nM) ABHD6. The gist of the method:
as §1

The next assay concerns the target T3, PLA2G7 (Mus musculus, UniProt Q60963).
T3 construct: Proteomes (mouse brain membrane fraction or cell lysates); from tissue; host or cells: mouse brain membrane fraction (or cell lysates, not specified)
T3 sequence (Q60963 22-440): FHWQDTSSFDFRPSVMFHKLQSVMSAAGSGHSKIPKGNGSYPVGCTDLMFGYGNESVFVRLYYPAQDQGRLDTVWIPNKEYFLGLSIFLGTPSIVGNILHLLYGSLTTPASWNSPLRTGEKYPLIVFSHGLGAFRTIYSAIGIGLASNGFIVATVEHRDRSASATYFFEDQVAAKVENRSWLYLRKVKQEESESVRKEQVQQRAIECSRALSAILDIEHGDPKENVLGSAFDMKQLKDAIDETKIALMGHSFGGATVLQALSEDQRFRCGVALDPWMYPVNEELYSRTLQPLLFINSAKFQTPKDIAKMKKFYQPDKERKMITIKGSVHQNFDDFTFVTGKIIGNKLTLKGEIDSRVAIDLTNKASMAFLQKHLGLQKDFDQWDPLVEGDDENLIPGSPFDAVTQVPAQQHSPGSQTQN
The conditions noted are these: for inhibition at 1 µM: 1 μM inhibitor, read-out: % Inhibition at 1 μM, D = PLA2G7; for inhibition at 10 µM: 10 μM inhibitor, read-out: % Inhibition at 10 μM, D = PLA2G7; for IC50: mouse brain membrane fraction or cell lysates, 30 min preincubation at 37° C. Put shortly:
as §1

A further assay concerns the target T4, MAGL (Mus musculus, UniProt O35678).
T4 construct: Proteomes (mouse brain membrane fraction or cell lysates); from tissue; host or cells: mouse brain membrane fraction (or cell lysates, not specified)
T4 sequence (O35678 1-303): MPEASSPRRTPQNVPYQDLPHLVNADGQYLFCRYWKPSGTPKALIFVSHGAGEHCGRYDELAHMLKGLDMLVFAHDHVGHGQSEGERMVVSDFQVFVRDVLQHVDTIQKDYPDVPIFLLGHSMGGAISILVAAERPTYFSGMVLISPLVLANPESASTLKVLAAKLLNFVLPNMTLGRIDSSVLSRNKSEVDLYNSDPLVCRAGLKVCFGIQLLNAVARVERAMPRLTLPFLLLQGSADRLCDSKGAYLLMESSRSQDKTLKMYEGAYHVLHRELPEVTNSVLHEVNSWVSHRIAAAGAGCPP
The conditions noted are these: for inhibition at 1 µM: 1 μM inhibitor; for inhibition at 10 µM: 10 μM inhibitor; for IC50: mouse brain membrane fraction or cell lysates, 30 min preincubation at 37° C., read-out: Mouse (IC50 value, nM) MAGL. The gist of the method: as §1

Structures are written as SMILES. Like-named read-outs stand apart in the source and are kept apart here.

As for `COc1cccc(N2CCN(C(=O)n3cc(C(F)(F)F)cn3)CC2)c1` [Example 234, (4-(3-Methoxyphenyl)piperazin-1-yl)(4-(trifluoromethyl)-1H-pyrazol-1-yl)methanone], the inhibition at 1 µM on FAAH, at ABHD6, at PLA2G7 and at MAGL was above 75% each time. For the same compound, the inhibition at 10 µM on FAAH, at ABHD6, on PLA2G7 and on MAGL was above 75% in each case. The half-maximal inhibitory concentration (IC50) at FAAH, at ABHD6, at PLA2G7 and at MAGL was below 100 nM throughout.
For the compound `Cc1cccc(CN2CCN(C(=O)n3cc(C(F)(F)F)cn3)CC2)c1` [Example 270, (4-(3-Methylbenzyl)piperazin-1-yl)(4-(trifluoromethyl)-1H-pyrazol-1-yl)methanone], the inhibition at 1 µM on FAAH (gel-based competitive ABPP), at ABHD6 (gel-based competitive ABPP), on PLA2G7 (gel-based competitive ABPP) and on MAGL (gel-based competitive ABPP) was above 75% throughout.
On to `O=C(N1CCN(c2ccccc2Cl)CC1)n1cc(C(F)(F)F)cn1` [Example 227, (4-(2-Chlorophenyl)piperazin-1-yl)(4-(trifluoromethyl)-1H-pyrazol-1-yl)methanone], for which the inhibition at 1 µM at FAAH, at ABHD6, on PLA2G7 and at MAGL was above 75% each time. Besides, the inhibition at 10 µM at FAAH, at ABHD6, on PLA2G7 and on MAGL was above 75% each time. Further, the IC50 on FAAH, at ABHD6, at PLA2G7 and on MAGL was below 100 nM throughout.
Regarding `CCN(Cc1cccc(OC)c1)C(=O)n1cc(Cl)cn1` [Example 128, 4-Chloro-N-ethyl-N-(3-methoxybenzyl)-1H-pyrazole-1-carboxamide], the inhibition at 10 µM on FAAH is above 75%; on ABHD6, above 75%; at PLA2G7, below 25%; at MAGL it was above 75%. Moreover, the IC50 at FAAH was 100 to 1000 nM; at ABHD6, above 1000 nM; on MAGL, above 1000 nM.
As for `O=C(c1cnn(C(=O)N2CCN(Cc3ccc4c(c3)OCO4)CC2)c1)N1CCOCC1` [Example 51, (4-(Benzo[d][1,3]dioxol-5-ylmethyl)piperazin-1-yl)(4-(morpholine-4-carbonyl)-1H-pyrazol-1-yl)methanone], the inhibition at 1 µM on FAAH is below 25%; at ABHD6, above 75%; on PLA2G7 it was below 25%; on MAGL it was below 25%. Besides, the inhibition at 10 µM at FAAH, on ABHD6, on PLA2G7 and on MAGL was above 75% throughout. For the same compound, on ABHD6, the IC50 was in the range of 100 to 1000 nM.
As for `CCN(Cc1cccc(N2CCOCC2)c1)C(=O)n1cc(Cl)cn1` [Example 266, 4-Chloro-N-ethyl-N-(3-morpholinobenzyl)-1H-pyrazole-1-carboxamide], the inhibition at 1 µM at FAAH (gel-based competitive ABPP) was above 75%; on ABHD6 (gel-based competitive ABPP), below 25%; at PLA2G7 (gel-based competitive ABPP), below 25%; on MAGL (gel-based competitive ABPP) it was below 25%. In addition, the inhibition at 10 µM is above 75% on FAAH (gel-based competitive ABPP), above 75% at ABHD6 (gel-based competitive ABPP), below 25% on PLA2G7 (gel-based competitive ABPP) and above 75% at MAGL (gel-based competitive ABPP). Besides, the IC50 on FAAH was 100 to 1000 nM; at ABHD6 it was above 1000 nM; at PLA2G7, above 1000 nM; at MAGL, above 1000 nM.
For `O=C(NCCCc1ccccc1)n1cccn1` [Example 31, N-(3-Phenylpropyl)-1H-pyrazole-1-carboxamide], the inhibition at 10 µM at FAAH, at ABHD6, at PLA2G7 and on MAGL was below 25% throughout.
In the case of `Cc1cnn(C(=O)N2CCN(Cc3ccccc3)CC2)c1` [Example 8, (4-Benzylpiperazin-1-yl)(4-methyl-1H-pyrazol-1-yl)methanone], the inhibition at 1 µM at FAAH was below 25%; at ABHD6 it was above 75%; at PLA2G7, below 25%; at MAGL, 25 to 75%. In addition, the inhibition at 10 µM on FAAH was 25 to 75%; at ABHD6 it was above 75%; at PLA2G7, above 75%; on MAGL, above 75%.
Take `O=C(N1CCN(c2ccccc2N2CCOCC2)CC1)n1cc(C(F)(F)F)cn1` [Example 236, (4-(2-Morpholinophenyl)piperazin-1-yl)(4-(trifluoromethyl)-1H-pyrazol-1-yl)methanone]: the inhibition at 1 µM is 25 to 75% at FAAH, above 75% on ABHD6, above 75% at PLA2G7 and above 75% at MAGL. Also, the inhibition at 10 µM on FAAH, at ABHD6, on PLA2G7 and on MAGL was above 75% each time.
With `CS(=O)(=O)N1CCN(C(=O)n2cc(C(F)(F)F)cn2)CC1` [Example 150, (4-(Methylsulfonyl)piperazin-1-yl)(4-(trifluoromethyl)-1H-pyrazol-1-yl)methanone], the inhibition at 1 µM was below 25% at FAAH, above 75% at ABHD6, above 75% on PLA2G7 and below 25% on MAGL. In addition, the inhibition at 10 µM on FAAH is 25 to 75%; at ABHD6, above 75%; at PLA2G7 it was above 75%; on MAGL it was 25 to 75%.
In the case of `CCN(Cc1cccc(Cl)c1)C(=O)n1cc(C)cn1` [Example 245, N-(3-chlorobenzyl)-N-ethyl-4-methyl-1H-pyrazole-1-carboxamide], the inhibition at 1 µM at FAAH (gel-based competitive ABPP), on ABHD6 (gel-based competitive ABPP), at PLA2G7 (gel-based competitive ABPP) and at MAGL (gel-based competitive ABPP) was below 25% each time.

By inhibition is commonly meant how much of the control response was suppressed. The term IC50 denotes the concentration needed to halve the response being measured.
